# Values quoted from earlier work in publication PMC12650809, “Evolving Therapeutic Landscape of ROS1-Positive Non-Small Cell Lung Cancer: An Updated Review” (Current Oncology, 2025).
# Where two headings read alike, the source gives them in different places. Marks after values point to notes of the source that are not given here.
# How the values were obtained:
# [1] = tested on: advanced ROS1-positive NSCLC
# [2] = tested on: ROS1-positive NSCLC; design: method as in PMID 29596029; settings: 127 patients
# [3] = tested on: ROS1-positive NSCLC; design: method as in PMID 31584608
# [4] = tested on: ROS1-positive NSCLC; design: method as in PMID 30978502; settings: 34 patients
# [5] = tested on: ROS1-positive NSCLC
# [6] = tested on: ROS1^L2086F; design: method as in PMID 38070596; settings: for resistance or sensitivity conferred by ROS1^L2086F: L2086F alone or in combination with G2032R or S1986F, preclinical models; for resistance or activity with L2086F: ATP-binding pocket
# [7] = tested on: ROS1^G2032R; design: method as in PMID 38070596; settings: solvent-front substitution
# [8] = tested on: ROS1-positive NSCLC; remark: listed apart in the source
# [9] = tested on: advanced ROS1-rearranged NSCLC; design: method as in PMID 38197815
# [10] = tested on: ROS1-positive NSCLC; design: method as in earlier work; settings: WCLC 2025 Abstract 4540; for ORR if G2032R Mutation (%): TKI-pretreated patients with G2032R; for IC-ORR (%) / TKI-Pretreated ORR (%) / mPFS (Months): TKI-pretreated patients
# [11] = tested on: ROS1^G2032R and D2033N mutations; settings: preclinical, in vitro
# [12] = tested on: advanced ROS1-positive NSCLC; design: method as in PMID 31669155
# [13] = tested on: ROS1-positive NSCLC; design: method as in doi:10.1200/JCO.2024.42.16_suppl.8519; settings: 32 TKI-naïve patients
# [14] = tested on: ROS1-positive NSCLC; design: method as in PMID 35227966
# [15] = tested on: ROS1^G2032R mutation; design: method as in PMID 36511802; settings: preclinical studies
# [16] = tested on: wild-type ROS1; design: method as in PMID 36511802; settings: preclinical studies
# [17] = tested on: ROS1-positive NSCLC; remark: listed apart in the source
# [18] = ROS1 TKI-naïve patients, n = 71
# [19] = previously treated with a ROS1-targeted TKI, n = 56
# [20] = previously treated with crizotinib
# [21] = after at least one prior ROS1-targeted TKI
# [22] = 117 TKI-pretreated patients, WCLC 2025 Abstract 4540
# [23] = TKI-naïve patients, n = 35, preliminary, WCLC 2025 Abstract 4540
# [24] = TKI-naïve patients, preliminary, WCLC 2025 Abstract 4540
# [25] = most common AEs, ref WCLC 2025 Abstract 4540
# [26] = grade ≥ 3, ref WCLC 2025 Abstract 4540
structure (smiles),measurement,setting,value
"C[C@@H](Oc1cc(-c2cnn(C3CCNCC3)c2)cnc1N)c1c(Cl)ccc(F)c1Cl [Crizotinib, crizotinib]",4-year survival probability,[1],51%
same,AEs leading to permanent treatment discontinuation,[1],No AEs led to permanent treatment discontinuation
same,grade 4 or 5 events,[1],no grade 4 or 5 events
same,median PFS,[1],19.3 months
same,median duration of response (DOR),[1],24.7 months
same,median overall survival (OS),[1],51.4 months
same,median time to response,[1],7.9 weeks
same,ORR,[1]; 53 patients,72%
same,complete responses (number),[1]; 53 patients,6
same,partial responses (number),[1]; 53 patients,32
same,diarrhea,[1]; treatment-related AEs,44%
same,nausea,[1]; treatment-related AEs,40%
same,peripheral edema,[1]; treatment-related AEs,40%
same,visual disturbances,[1]; treatment-related AEs,82%
same,ORR,[2],72%
same,median PFS,[2],15.9 months
same,ORR,[3],69.4%
same,median PFS,[3],5.5 months
same,ORR,[4],70%
same,median PFS,[4],20 months
same,TKI-Naive ORR (%),[5]; TKI-naïve patients,72%
same,resistance or sensitivity conferred by ROS1^L2086F,[6],cross-resistance
same,resistance or sensitivity with ROS1^G2032R,[7],high-level resistance
same,Notable AEs: diarrhea,[8],44%
same,Notable AEs: nausea,[8],40%
same,Notable AEs: visual disturbances,[8],82%
same,Discontinuation for AEs (%),[8]; WCLC 2025 Abstract 4540,<1%
same,Notable AEs: peripheral edema,[8]; WCLC 2025 Abstract 4540,40%
same,Main Grade ≥ 3 AEs: hypophosphatemia,[8]; grade ≥ 3,"Hypophosphatemia (10%), neutropenia (10%)"
same,Main Grade ≥ 3 AEs: neutropenia,[8]; grade ≥ 3,"Hypophosphatemia (10%), neutropenia (10%)"
"C[C@H]1CNC(=O)c2cnn3ccc(nc23)N[C@H](C)c2cc(F)ccc2O1 [Repotrectinib, repotrectinib]",treatment discontinuation due to AEs,[9],7%
same,response rate,[9]; 17 patients harboring ROS1^G2032R,59%
same,dizziness,"[9]; AEs, mostly grade 1–2",58%
same,dysgeusia,"[9]; AEs, mostly grade 1–2",50%
same,paresthesia,"[9]; AEs, mostly grade 1–2",30%
same,ORR,[9]; [18],79%
same,median DOR,[9]; [18],34.1 months
same,median PFS,[9]; [18],35.7 months
same,intracranial response rate,"[9]; TKI-naïve, measurable BMs at baseline",89%
same,ORR,[9]; [19],38%
same,median PFS,[9]; [19],9 months
same,TKI-Naive ORR (%),[5]; TKI-naïve patients,79%
same,mPFS (Months),[5]; TKI-naïve patients,35.7 Months
same,IC-ORR (%),[5]; TKI-naïve patients evaluable for intracranial ORR,89 ^d %
same,ORR if G2032R Mutation (%),[10],59%
same,IC-ORR (%),[10],38%
same,TKI-Pretreated ORR (%),[10],38%
same,mPFS (Months),[10],9.0 Months
same,resistance or activity with L2086F,[6],cross-resistance
same,resistance or sensitivity with ROS1^G2032R,[7],some sensitivity
same,inhibitory activity against ROS1^G2032R and D2033N mutations,[11],potent inhibitory activity
same,Notable AEs: dizziness,[8],58%
same,Notable AEs: dysgeusia,[8],50%
same,Notable AEs: paresthesia,[8],30%
same,Discontinuation for AEs (%),[8]; WCLC 2025 Abstract 4540,7%
same,Main Grade ≥ 3 AEs: anemia,[8]; grade ≥ 3,4%
same,Main Grade ≥ 3 AEs: dizziness,[8]; grade ≥ 3,3%
"C[C@H]1Oc2cc(cnc2N)-c2c(nn(C)c2C#N)CN(C)C(=O)c2ccc(F)cc21 [Lorlatinib, lorlatinib]",ORR,[12]; 21 TKI-naïve patients,62%
same,median DOR,[12]; TKI-naïve patients,25.3 months
same,median PFS,[12]; TKI-naïve patients,21.0 months
same,intracranial ORR,"[12]; TKI-naïve, BMs at baseline",64%
same,efficacy against ROS1^G2032R mutation,[12]; patients with secondary resistance mutations to crizotinib,limited efficacy
same,treatment discontinuation due to AEs,[12]; pivotal trial,1%
same,ORR,[12]; [20],35%
same,intracranial ORR,[12]; [20],50%
same,median DOR,[12]; [20],13.8 months
same,activity in patients harboring ROS1^K1991E and ROS1^S1986F mutations,[12]; secondary resistance mutations to crizotinib,showed activity in some patients
same,ORR,[13],69%
same,median PFS,[13],35.8 months
same,ORR,[14]; 80 patients after at least one prior ROS1-targeted TKI,45%
same,intracranial ORR,[14]; [21],72%
same,median OS,[14]; [21],19.6 months
same,median PFS,[14]; [21],7.1 months
same,median intracranial DOR,[14]; non-irradiated brain metastases,20.6 months
same,treatment discontinuation due to AEs,[14]; real-world cohort,13%
same,ORR if G2032R Mutation (%),[10],0%
same,IC-ORR (%),[10],50%
same,mPFS (Months),[10],8.5 Months
same,resistance or sensitivity conferred by ROS1^L2086F,[6],cross-resistance
same,resistance or sensitivity with ROS1^G2032R,[7],high-level resistance
same,Notable AEs: cognitive effects,[8],27%
same,Notable AEs: dizziness,[8],12%
same,Notable AEs: hypercholesterolemia,[8],80%
same,Notable AEs: mood disorders,[8],16%
same,Notable AEs: weight gain,[8],23%
same,Discontinuation for AEs (%),[8]; WCLC 2025 Abstract 4540,1%
same,Main Grade ≥ 3 AEs: hypercholesterolemia,[8]; grade ≥ 3,15%
same,Main Grade ≥ 3 AEs: hypertriglyceridemia,[8]; grade ≥ 3,19%
same,Main Grade ≥ 3 AEs: weight gain,[8]; grade ≥ 3,7%
"CCn1ncc2c1-c1cnc(N)c(c1)O[C@H](C)c1cc(F)ccc1-c1nn(C)nc1C2 [Zidesamtinib, zidesamtinib]",IC50,[15],7.9 nM
same,inhibitory activity,[16],subnanomolar
same,ORR if G2032R Mutation (%),[10],83%
same,IC-ORR (%),[10],48%
same,TKI-Pretreated ORR (%),[10],44%
same,mPFS (Months),[10],9.7 Months
same,resistance or activity with L2086F,[6],cross-resistance
same,resistance or sensitivity with ROS1^G2032R,[7],some sensitivity
same,12-month DOR rate,[17]; [22],78%
same,ORR,[17]; [22],44%
same,12-month DOR rate,[17]; [23],96%
same,ORR,[17]; [23],89%
same,CNS progression events at data cutoff,[17]; [24],no CNS progression events
same,IC-ORR,[17]; [24],83%
same,intracranial complete responses (number),[17]; [24],four
same,constipation,[17]; [25],17%
same,creatine phosphokinase elevation,[17]; [25],16%
same,dyspnea,[17]; [25],15%
same,fatigue,[17]; [25],16%
same,peripheral edema,[17]; [25],36%
same,treatment discontinuations,"[17]; most common reason: pneumonia, ref WCLC 2025 Abstract 4540",2%
same,dose reductions,[17]; ref WCLC 2025 Abstract 4540,10%
same,Discontinuation for AEs (%),[8]; WCLC 2025 Abstract 4540,2%
same,Notable AEs: constipation,[8]; WCLC 2025 Abstract 4540,17%
same,Notable AEs: peripheral edema,[8]; WCLC 2025 Abstract 4540,36%
same,Main Grade ≥ 3 AEs: CPK elevation,[8]; [26],"CPK elevation (3%), dyspnea (3%)"
same,Main Grade ≥ 3 AEs: dyspnea,[8]; [26],"CPK elevation (3%), dyspnea (3%)"
same,Notable AEs: CPK elevation,[8]; ref WCLC 2025 Abstract 4540,16%
same,Notable AEs: dyspnea,[8]; ref WCLC 2025 Abstract 4540,15%
same,Notable AEs: fatigue,[8]; ref WCLC 2025 Abstract 4540,16%
